How the values were obtained:
[1] = biological target: T1, human CCR3 (Homo sapiens, UniProt P51677); experiment: binding of [125I]-human eotaxin to human CCR3 (SPA, membranes of RBL-2H3 cells expressing CCR3); settings: [125I]-human eotaxin 50 pM, 4 hours at room temperature; read-out: IC50 (concentration of test compound at which 50% inhibition of eotaxin binding to CCR3 occurs)
T1 construct: expressed in transfected cells; membranes
T1 sequence (P51677 1-355): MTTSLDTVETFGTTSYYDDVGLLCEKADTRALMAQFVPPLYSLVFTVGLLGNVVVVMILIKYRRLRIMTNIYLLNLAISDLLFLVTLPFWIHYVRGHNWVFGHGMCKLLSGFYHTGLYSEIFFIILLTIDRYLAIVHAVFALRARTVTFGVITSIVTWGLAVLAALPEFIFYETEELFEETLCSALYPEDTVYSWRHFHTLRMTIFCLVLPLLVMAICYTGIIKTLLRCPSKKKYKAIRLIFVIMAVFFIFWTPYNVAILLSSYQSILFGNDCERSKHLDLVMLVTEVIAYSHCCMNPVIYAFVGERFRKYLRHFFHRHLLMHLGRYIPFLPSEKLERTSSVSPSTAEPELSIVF
Experimental: In this assay the effect of the compounds of the present invention on the binding of human eotaxin to human CCR3 is determined. Recombinant cells expressing human CCR3 are captured by wheatgerm agglutinin (WGA) polyvinyltoluidene (PVT) SPA beads (available from Amersham), through a specific interaction between the WGA and carbohydrate residues of glycoproteins on the surface of the cells. [^125I]-human eotaxin (available from Amersham) binds specifically to CCR3 receptors bringing the [^125I]-human eotaxin in close proximity to the SPA beads. Emitted â-particles from the [^125I]-human eotaxin excite, by its proximity, the fluorophore in the beads and produce light.
Preparation of Assay Buffer 5.96 g HEPES and 7.0 g sodium chloride are dissolved in distilled H2O and 1 M aq. CaCl2 (1 ml) and 1 M aq. MgCl2 (5 ml) are added. The pH is adjusted to 7.6 with NaOH and the solution made to a final volume of 1 L using distilled H2O. 5 g of bovine serum albumin and 0.1 g NaN3 are dissolved in the solution and the resulting buffer stored at 4° C. […]
The assay is performed in a final volume of 250 μl per well of an Optiplate™ microplate (ex Canberra Packard). […] The resulting scintillations are counted using a Canberra Packard TopCount™ scintillation counter, each well being counted for 1 minute. […]

| melting point | IC50 [1] | Compound |
| --- | --- | --- |
| 83 to 85 °C | – | O=C(C=C1CCN(Cc2ccc(F)cc2)CC1)NCc1ccc(F)c(F)c1 [Example 1, N-(3,4-Difluoro-benzyl)-2-[1-(4-fluoro-benzyl)-piperidin-4-ylidene]-acetamide] |
| 117 to 120 °C | ~200 nM | O=C(C=C1CCN(CCc2ccc(F)cc2)CC1)NCc1ccc(F)c(F)c1 [Example 17, N-(3,4-Difluoro-benzyl)-2-{1-[2-(4-fluoro-phenyl)-ethyl]-piperidin-4-ylidene}-acetamide] |

From patent US20100048633A1, “Piperidine-4-acrylamides” (priority 2007, published 2010)
